Results taken from patent publication US12415789B2, “Macrocycles comprising a 4-amido-2,4-pentadienoate moiety for the treatment of hypoxic cancers” (Aarhus Universitet, priority 2019, dated 2025).
Like-named read-outs stand apart in the source and are kept apart here.

Key:
Assay type in all cases: cell-based, human
[1] = tested on: BxPC3 cells; assay: Viability assay (CellTiter Blue), BxPC3 cells, hypoxia vs normoxia; settings: for Index [3] Selectivity index (IC50 [2]/IC50 [1]): BxPC3, normoxic IC50 / hypoxic IC50
Protocol: (§1) PANC-1 and HaCat cells (PANC-1: RRID:CVCL 0480, taken from a person, HaCat: RRID:CVCL 0038) were cultured in DMEM (Gibco, Cat #: 21969-035) supplemented with FBS (10%, Gibco, Cat #: A31698-02), Penicillin/Streptomycin (1%, Sigma-Aldrich, Cat #: P0781), and Ala-Gln (200 μM, Sigma-Aldrich, Cat #: G8541). BxPC3 cells (RRID:CVCL 0186, taken from a person) were cultured in RPMI 1640 (Gibco, Cat #: 61870-010) supplemented with FBS (10%) and Penicillin/Streptomycin (1%). U2OS (RRID:CVCL 0042) and HCT116 cells (RRID:CVCL 0291, ATCC CCL-247) were cultured in McCoy's 5A (Sigma cat. no. M9309) supplemented with FBS (10%) and Penicillin/Streptomycin (1%). Cells were grown under normoxic conditions in T75 flasks (Biolite, Thermo Scientific, Cat #: 130190) in a humidified atmosphere with 5% CO2 at 37° C. For hypoxic conditions cells were placed in a modular incubator chamber (MIC-101, Billups-Rothenberg) equipped with a 10-cm dish with milliQ water and flushed with CO2/N2 (5%/95%, BioNERT, AGA Cat #: 100466065) for 8 minutes at 20-25 L/minute. Cells were passaged approximately every third day by trypsination (Sigma-Aldrich, Cat #: T4049) followed by transfer of ⅕^th of the cells to a new flask. All cell cultures were handled aseptically in a laminar air flow bench and grown in sterile-filtered (Jetbiofil, Cat #: FPE204500) medium according to ATCC's recommendations. All human cell lines were correctly identified by short tandem repeat analysis and tested free of mycoplasma contamination by MycoAlert (Lonza, Cat #: LT07-218).
(§2) Cells were seeded in black 96-well plates (2000 cells/well, 75 μL/well, ThermoFisher Scientific, Cat #: 137103) in complete medium. Subsequently, the cells were allowed to adhere to the substratum overnight. The next day, compounds were serially diluted in DMSO as 200× solutions. The 200× solutions of compounds were initially diluted in complete medium to 4× solutions containing 2% DMSO. Finally, the compounds were given to cells by the addition of 25 μL/well in triplicates resulting in 1× solutions of compounds in 100 μL/well. The cells were then incubated under either normoxia or hypoxia. 90 minutes before the end of the experiment, all cells were given CellTiter Blue (20 μL/well, Promega, Cat #: G8080) and reincubated under normoxia for the remaining time of the experiment. The viability of the cells was assessed by measuring fluorescence in a plate reader (ex/em: 552±10/598±10, Tecan Spark 10M). Data were normalized to the two lowest concentrations of compound and fitted to a 4-parameter nonlinear regression in Prism 7.04 for Windows, GraphPad Software, La Jolla Calif. USA. IC50 values were extrapolated as the X value at Y=50%. Results can be found in Table 1 and the corresponding dose-response curves seen in FIGS. 12 to 17 and in FIGS. 9 to 10.

[2] = tested on: HCT116 cells; assay: Viability assay (CellTiter Blue), HCT116 cells, hypoxia vs normoxia; settings: for Index [3] Selectivity index (IC50 [2]/IC50 [1]): HCT116, normoxic IC50 / hypoxic IC50
Protocol: as §1, §2

[3] = tested on: PANC-1 cells; assay: Viability assay (CellTiter Blue), PANC-1 cells, hypoxia vs normoxia; settings: for Index [3] Selectivity index (IC50 [2]/IC50 [1]): PANC1, normoxic IC50 / hypoxic IC50
Protocol: as §1, §2

[4] = tested on: U2OS cells; assay: Viability assay (CellTiter Blue), U2OS cells, hypoxia vs normoxia; settings: for Index [3] Selectivity index (IC50 [2]/IC50 [1]): normoxic IC50 / hypoxic IC50
Protocol: (§3) Cells were seeded in black 96-well plates (2000 cells/well, 75 μL/well, ThermoFisher Scientific, Cat #: 137103) in complete medium. Subsequently, the cells were allowed to adhere to the substratum overnight. The next day, compounds were serially diluted in DMSO as 200× solutions. The 200× solutions of compounds were initially diluted in complete medium to 4× solutions containing 2% DMSO. Finally, the compounds were given to cells by the addition of 25 μL/well in triplicates resulting in 1× solutions of compounds in 100 μL/well. The cells were then incubated under either normoxia or hypoxia. 90 minutes before the end of the experiment, all cells were given CellTiter Blue (20 μL/well, Promega, Cat #: G8080) and reincubated under normoxia for the remaining time of the experiment. The viability of the cells was assessed by measuring fluorescence in a plate reader (ex/em: 552±10/598±10, Tecan Spark 10M). Data were normalized to the two lowest concentrations of compound and fitted to a 4-parameter nonlinear regression in Prism 7.04 for Windows, GraphPad Software, La Jolla Calif. […] IC50 values were extrapolated as the X value at Y=50%.

[5] = tested on: HaCat cells; assay: Viability assay (CellTiter Blue), HaCat cells, hypoxia vs normoxia; settings: for Index [3] Selectivity index (IC50 [2]/IC50 [1]): normoxic IC50 / hypoxic IC50
Protocol: as §3

[6] = BxPC3, hypoxic conditions, read-out: IC50 (μM) [1]
[7] = BxPC3, normoxic conditions, read-out: IC50 (μM) [2]
[8] = HCT116, hypoxic conditions, read-out: IC50 (μM) [1]
[9] = HCT116, normoxic conditions, read-out: IC50 (μM) [2]
[10] = PANC1, hypoxic conditions, read-out: IC50 (μM) [1]
[11] = PANC1, normoxic conditions, read-out: IC50 (μM) [2]
[12] = Homo sapiens, BXPC-3, BxPC3, hypoxic conditions, read-out: IC50 (μM) [1]
[13] = Homo sapiens, BXPC-3, BxPC3, normoxic conditions, read-out: IC50 (μM) [2]
[14] = Homo sapiens, HCT-116, HCT116, hypoxic conditions, read-out: IC50 (μM) [1]
[15] = Homo sapiens, HCT-116, HCT116, normoxic conditions, read-out: IC50 (μM) [2]
[16] = Homo sapiens, PANC-1, PANC1, hypoxic conditions, read-out: IC50 (μM) [1]
[17] = Homo sapiens, PANC-1, PANC1, normoxic conditions, read-out: IC50 (μM) [2]
[18] = Homo sapiens, hypoxic conditions, read-out: IC50 (μM) [1]
[19] = Homo sapiens, normoxic conditions, read-out: IC50 (μM) [2]
[20] = hypoxic conditions, read-out: IC50 (μM) [1]
[21] = normoxic conditions, read-out: IC50 (μM) [2]

| SMILES | IC50 [1, 6] | IC50 [1, 7] | IC50 [2, 8] | Index [3] Selectivity index (IC50 [2]/IC50 [1]) [2] | IC50 [2, 9] | IC50 [3, 10] | IC50 [3, 11] | Index [3] Selectivity index (IC50 [2]/IC50 [1]) [3] | Index [3] Selectivity index (IC50 [2]/IC50 [1]) [1] | other results |
| --- | --- | --- | --- | --- | --- | --- | --- | --- | --- | --- |
| CCCCCCCCCCCCc1ccc2c(c1)OC[C@H](CCCCNC(=O)OC(C)(C)C)NC(=O)CN(C)C(=O)/C=C/[C@H](CO)NC2=O [PH908, tert-butyl (4-((3S,11R,E)-16-dodecyl-11-(hydroxymethyl)-7-methyl-5,8,13-trioxo-2,3,4,5,6,7,8,11,12,13-decahydrobenzo[n][1]oxa-[4,7,12]triazacyclopentadecin-3-yl)butyl)carbamate] | > 50 µM | > 50 µM | 14.7 µM | 1.2 | 17.4 µM | > 50 µM | > 50 µM | – | – | – |
| CCCCCCCCCCCCc1ccc2c(c1)OC[C@H](CC(=O)OC)NC(=O)CN(C)C(=O)/C=C/[C@H](CO)NC2=O [PH830, Methyl 2-((3S,11R,E)-16-dodecyl-11-(hydroxymethyl)-7-methyl-5,8,13-trioxo-2,3,4,5,6,7,8,11,12,13-decahydrobenzo[n][1]oxa[4,7,12]-triazacyclopentadecin-3-yl)acetate] | > 50 µM | > 50 µM | > 50 µM | – | > 50 µM | > 50 µM | > 50 µM | – | – | – |
| CCCCCCCCCCCCc1ccc2c(c1)OCCNC(=O)CN(C)C(=O)/C=C/C(CO)NC2=O (stereo not shown) [PH462, (E)-16-dodecyl-11-(hydroxymethyl)-7-methyl-3,4,6,7,11,12-hexahydro-benzo[n][1]oxa[4,7,12]triazacyclopentadecine-5,8,13(2H)-trione] | > 50 µM | > 50 µM | > 50 µM | – | > 50 µM | > 50 µM | > 50 µM | – | – | – |
| C=C1/C=C/C(=O)N(C)CC(=O)N[C@@H](CC(=O)NC2CC2)COc2cc(CCCCCCCCCCCC)ccc2C(=O)N1 [PH906, (S,E)-N-cyclopropyl-2-(16-dodecyl-7-methyl-11-methylene-5,8,13-trioxo-2,3,4,5,6,7,8,11,12,13-decahydrobenzo[n][1]oxa[4,7,12]-triazacyclopentadecin-3-yl)acetamide] | – | – | 1.4 µM | >20.7 | > 28 µM | 2.3 µM | > 28 µM | >12.1 | – | – |
| C=C1/C=C/C(=O)N(C)CC(=O)N[C@@H](CC(=O)N2CCOCC2)COc2cc(CCCCCCCCCCCC)ccc2C(=O)N1 [PH741, (S,E)-16-dodecyl-7-methyl-11-methylene-3-(2-morpholino-2-oxoethyl)-3,4,6,7,11,12-hexahydrobenzo[n][1]oxa[4,7,12]triazacyclopentadecine-5,8,13(2H)-trione] | – | – | 3.3 µM | 4.9 | 16.2 µM | 7.8 µM | 16.3 µM | 2.1 | – | – |
| C#CCNC(=O)C[C@H]1COc2cc(CCCCCCCCCCCC)ccc2C(=O)NC(=C)/C=C/C(=O)N(C)CC(=O)N1 [PH845, (S,E)-2-(16-dodecyl-7-methyl-11-methylene-5,8,13-trioxo-2,3,4,5,6,7,8,11,12,13-decahydrobenzo[n][1]oxa[4,7,12]-triazacyclopentadecin-3-yl)-N-(prop-2-yn-1-yl)acetamide] | – | – | 4.2 µM | >12.4 | > 50 µM | 3.1 µM | > 50 µM | >16.4 | – | – |
| Nc1n[n+]([O-])c2ccccc2[n+]1[O-] [Tirapazamine, reference compound] | – | – | – | 4.0 | – | – | – | 7.1 | 2.8 | IC50 [1, 12]: 14 µM; IC50 [1, 13]: 39 µM; IC50 [2, 14]: 14.4 µM; IC50 [2, 15]: 58 µM; IC50 [3, 16]: 11 µM; IC50 [3, 17]: 76 µM; IC50 [4, 18]: 98 µM; IC50 [4, 19]: 18 µM; Index [3] Selectivity index (IC50 [2]/IC50 [1]) [4]: 5.5; IC50 [5, 18]: 20 µM; IC50 [5, 19]: 106 µM; Index [3] Selectivity index (IC50 [2]/IC50 [1]) [5]: 5.2 |
| C=C1/C=C/C(=O)N(C)CC(=O)N2CC(F)(F)C[C@H]2COc2cc(CCCCCCCCCCCC)ccc2C(=O)N1 [PH905, (S,E)-16-dodecyl-2,2-difluoro-7-methyl-11-methylene-2,3,6,7,11,12,19,19a-octahydro-1H,5H-benzo[n]pyrrolo[2,1-c][1]oxa-[4,7,12]triazacyclopentadecine-5,8,13-trione] | 5.5 µM | 6.3 µM | 3.7 µM | 1.0 | 3.5 µM | 5.4 µM | 5.8 µM | 1.1 | 1.1 | – |
| C=C1/C=C/C(=O)N(C)CC(=O)N[C@@H](CC(=O)OC)COc2cc(CCCCCCCCCCCC)ccc2C(=O)N1 [PH832, Methyl (S,E)-2-(16-dodecyl-7-methyl-11-methylene-5,8,13-trioxo-2,3,4,5,6,7,8,11,12,13-decahydrobenzo[n][1]oxa[4,7,12]-triazacyclopentadecin-3-yl)acetate] | – | – | 5 µM | 1.1 | 5.6 µM | 4.3 µM | 23.3 µM | 5.4 | – | – |
| C=C1C=CC(=O)N(C)CC(=O)NCCOc2cc(CCCCCCCCCCCC)ccc2C(=O)N1 [PH466, (E)-16-dodecyl-7-methyl-11-methylene-3,4,6,7,11,12-hexahydro-benzo[n][1]oxa[4,7,12]triazacyclopentadecine-5,8,13(2H)-trione] | 3.4 µM | 4.9 µM | 0.98 µM | 4.3 | 4.2 µM | 1.8 µM | 4.1 µM | 2.3 | 1.4 | IC50 [4, 20]: 2.1 µM; Index [3] Selectivity index (IC50 [2]/IC50 [1]) [4]: 1.8; IC50 [4, 21]: 3.8 µM; IC50 [5, 20]: 3.9 µM; Index [3] Selectivity index (IC50 [2]/IC50 [1]) [5]: 1.3; IC50 [5, 21]: 4.9 µM |
| C=C1/C=C/C(=O)N(C)CC(=O)N2CCC[C@H]2COc2cc(CCCCCCCCCCCC)ccc2C(=O)N1 [PH921, (S,E)-16-dodecyl-7-methyl-11-methylene-2,3,6,7,11,12,19,19a-octahydro-1H,5H-benzo[n]pyrrolo[2,1-c][1]oxa[4,7,12]triazacyclo-pentadecine-5,8,13-trione] | 6 µM | 12.3 µM | 2.6 µM | 3.3 | 8.4 µM | 2.6 µM | 13.7 µM | 5.3 | 2.1 | – |
| Cn1c(COP(=O)(NCCBr)NCCBr)cnc1[N+](=O)[O-] [TH302, Evofosfamide, reference compound] | – | – | – | 6.9 | – | – | – | 7.2 | 3.4 | IC50 [1, 12]: 21 µM; IC50 [1, 13]: 71 µM; IC50 [2, 14]: 6.2 µM; IC50 [2, 15]: 43 µM; IC50 [3, 16]: 9.4 µM; IC50 [3, 17]: 69 µM |
